From US20140051729A1, “COMPOSITIONS AND METHODS FOR TREATING DEGENERATIVE MUSCLE CONDITIONS” (University of Washington, priority 2011, published 2014)

Columns and labels:
[1] = system: mdx mice; experiment: EDL muscle myography in mdx mice; format: in vivo, mouse; conditions: THI IP twice-daily two weeks
Procedure: The effect of THI administration on muscle function and recovery in mdx mice was analyzed. The mice were injected intraperitoneally with THI in PBS or vehicle alone (PBS) twice-daily for two weeks. Total amount of THI delivered per day was 75 ug. Extensor digitorum longus (EDL) muscles were excised from the mice and equilibrated in ringer's solution with 95% O2/5% CO2 for a minimum of 15 minutes prior to stimulation. Myography was conducted using a DMT 820S myograph and data was recorded using PowerLab 4/30 acquisition system with LabChart Pro software v7.3.1 (both from ADI instruments, Colorado Springs, Colo.). Stimulations were conducted with a Grass Instrument S88X system (Grass Technologies, West Warwick, R.I.). Muscles were stimulated to establish optimal fiber length (Lf) and voltage at which maximum tetanic force was measured at 120 Hz within a 450 ms duration.
Specific force was calculated as previously described in Gregorevic P. et al. (Gregorevic P. et al., Muscle Nerve. 2004 September; 30(3):295-304, PMID#15318340) by normalizing to whole muscle cross-sectional area (CSA). CSA is the quotient of […] muscle mass over the optimal muscle length (Lo) which is defined as the product of muscle fiber length (Lf) with the fiber length ratio (0.44 for EDL) and mammalian muscle density (1.06).
Muscle recovery was measured after muscle was fatigued with stimulation over 6 minutes. […] Recovery was determined by examining muscle force at 5, 10, and 15 minutes after stimulation. […] Therefore, the administration of THI improved muscle recovery and function in dystrophic mice.
The effect of THI-oxime administration on muscle function and recovery in mdx mice was analyzed. The mice were injected intraperitoneally with THI-oxime (n=3) or PBS vehicle alone (n=4) twice-daily for two weeks and then analyzed between 1-4 days following the final day of injection. Total amount of THI-oxime delivered per day was 75 ug. Prior to euthanasia, the animals were anesthetized with 0.5 mg/g weight avertin diluted in PBS. EDL muscles were excised from the mice and equilibrated in ringer's solution (120 mM NaCl, 4.7 mM KCl, 3.15 mM MgCl2, 1.3 mM NaH2PO4, 25 mM NaHCO3, 11 mM Glucose, 1.25 mM CaCl2, pH 7.2) with 95% O2/5% CO2 for a minimum of 15 minutes prior to stimulation. All functional experiments were carried out with buffer solutions at 25° C. under constant oxygenation. Myography was conducted using a DMT 820S myograph and data was recorded using PowerLab 4/30 acquisition system with LabChart Pro software v7.3.1 (both from ADI instruments, Colorado Springs, Colo.). […] Muscles were stimulated to establish optimal fiber length (Lf) and voltage at which maximum tetanic force was measured at 120 Hz within a 450 ms duration. […]

[2] = system: mdx mice; experiment: Histopathology of CTX injured and uninjured muscles of aged mdx mice after IP THI; format: in vivo, mouse
Procedure: Muscle repair in mdx mice become impaired during aging resulting in muscle atrophy and dystrophy. The effects of THI on the histopathology were assessed in injured and uninjured muscles from two groups of aged mdx mice (n=6, 11 month-old females and n=7, 16 month-old males). In this experiment, right TAs and quadriceps muscles were uninjured, while left counterparts were injured using CTX. The mdx mice were injected with THI, or PBS as a vehicle control, immediately following injury with CTX 5 times during a 3-day period. Injured and uninjured muscles were harvested 18 days post injury to survey the effects of THI on muscle repair. […] Injured muscles were lighter than uninjured muscles in vehicle treated mice, an approximate weight loss of 20% (*p<0.05).
The left TAs and quadriceps of six, 10 month old female mdx4cv mice were injected with 50 μl and 100 μl CTX respectively. Three mice were injected IP with 0.15 mg/ml THI in PBS, twice daily (injections 8 hours apart) immediately after and for the first three days following injury. The three remaining animals were injected IP with PBS as vehicle controls. 1% Evans Blue dye was injected IV on day 17 post CTX, to label persistently damaged (dye permeable) muscle fibers. Animals were euthanized 18 days post injury and muscles were frozen under liquid nitrogen cooled isopentane in optimal cutting temperature (OCT). All myofibers were measured for the minimum diameters on the cross-sections of mouse quadriceps muscle using image J software. 750˜850 myofibers were counted for three mice treated with PBS or THI with or without CTX injury.
All mouse muscles were frozen directly in OCT with liquid nitrogen cooled in isopentane and sections of 8 μm thickness were obtained. Tissue for x-gal staining, was fixed for 10 min with 2% formaldehyde/0.2% glutaraldehyde and incubated overnight at 37° C. with staining buffer (PBS with 1 mg/ml x-gal, 5 mM potassium ferricyanide, 5 mM potassium ferrocyanide, and 2 mM […] (all from Fisher). Oil Red-O and Picrosirius red staining were done following established protocols. For eMyHC staining, tissue was first fixed with 2% formaldehyde for 5 min, treated with streptavidin/avidin blocking kit (Vector labs), and blocked with IgG block from M.O.M kit (Vector Labs) for 5 hrs at 4° C. Following blockade, concentrated mouse anti-eMyHC (clone F1.652 received at 357 μg/ml IgG) obtained from the developmental studies hybridoma bank (DHSB, University of Iowa) was administered at 1:400 dilution, overnight at 4° C. The remainder of the staining was done following mouse-on-mouse (M.O.M) kit staining instructions. For laminin staining tissue was also fixed with 2% formaldehyde for 5 min, and then treated with polyclonal rabbit anti-laminin (Sigma) for 1 hr at a 1:400 dilution in PBS+1% BSA. Following washes, Alexa Fluor 488 conjugated goat anti-rabbit IgG (Invitrogen) was administered at 1:800 dilution for 1 hr. Controls omitting the primary antibody were included with all staining. Staining quantifications were all done using ImageJ v1.40 (Wayne Rasband, NIH) cell counter plugin (Kurt De Vos, University of Sheffield). Calculations, statistics, and graphs were generated with Microsoft Excel. Brightfield photographs were captured using either a Fisher Micromaster digital inverted or upright microscopes with Micron software. Fluorescent photographs were captured with a monochromatic camera using a Zeiss Axiovert 200 microscope. Individual fluorescent channels were colored and merged using Adobe Photoshop CS2. Brightness contrast levels were adjusted to increase visibility and reduce background in most photographs.
Both stainings were done using freshly frozen mdx muscles. Pax7 staining was done as outlined by Clever et al., with slight modification (Clever J L, et al. Am J Physiol Cell Physiol. 2010; 298:C1087-C1099). Sections were fixed overnight in 4% formaldehyde (from PFA powder) at 4° C. […]

[3] = 11MO and 16MO mdx mice, Oil Red-O
[4] = 11MO mdx mice, dye injected day 17 post injury
[5] = 11 month-old mdx mice, vs vehicle
[6] = aged mdx mice, 18 days post CTX injury, vs vehicle

`CC(=O)c1ncc([C@@H](O)[C@H](O)[C@H](O)CO)[nH]1` [THI, 1-[5-[(1R,2S,3R)-1,2,3,4-tetrahydroxybutyl]-1H-imidazol-2-yl]-ethanone] was tested, and the “maximum specific force of EDL muscle” value ([1]; 75 ug per day, vehicle 95.45) was 134.29 KN/m^2, the “muscle fatigue with stimulation over 6 minutes” value ([1]; vs vehicle) was “fatigued at similar rates” and the “muscle recovery (force at 5, 10 and 15 minutes after stimulation)” value ([1]; vs vehicle) was “improved recovery”. For the same compound, the “ratio of fat deposition in injured TAs over uninjured contralateral TAs” value [2, 3] was “significantly reduced in THI treated vs. control animals in 11MO (*) but not 16 MO mdx mice”, the “ratio of injured over uninjured fat deposits in quadriceps” value [2, 3] was “significantly reduced in 16MO (#) but not in the 11MO mdx mice” and the “Evans Blue positive fibers in injured quadriceps over entire cross-sectional area” value [2, 4] was less than 5. For the same compound, the “Evans Blue positive fibers in uninjured contralateral quadriceps” value [2, 4] was “almost zero”, the “mean number of satellite cells (Pax7+ nuclei) in limb muscles (TAs and Quadriceps)” value [2, 5] was “significant increase” and the “minimum fiber diameter, uninjured and injured quadriceps and diaphragms” value [2, 5] was “significant increase”. For the same compound, the “ratio of dry weight of CTX injured over uninjured quadriceps, normalized to body weight” value ([2]; 16 month-old mdx males, 18 days post injury) was “ratio close to one”, the “muscle fiber size, uninjured quadriceps” value ([2]; 16 month-old mdx males, vs vehicle) was “significant increase” and the “overall histological muscle morphology of injured muscles” value ([2]; aged mdx mice, 18 days post CTX injury) was “more organized”. The “average fat deposition in injured TAs (Oil Red-O)” value [2, 6] was “significantly lower average fat deposition” and the “fibrosis in injured TAs and quadriceps muscles (Picrosirius Red)” value [2, 6] was “significantly reduced fibrosis”.
